Source: patent US20040023972A1, “Use of substituted imidazo[1,2-a]-pyridin-, -pyrimidin-and-pyrazin-3-yl-amine derivatives in the preparation of medicaments for inhibiting NOS” (Gruenenthal GmbH, priority 2000, published 2004)

target: T1, NO synthase (Rattus norvegicus, UniProt P29476); assay: HTS-NOS assay (NOS assay): conversion of radioactive arginine, cation-exchanger filter plate; format: biochemical; settings: 10 μM
T1 construct: the supernatant was then removed by decantation and frozen in portions at −80° C; from tissue; host or cells: rat cerebellum, 20,000 g supernatant of homogenate
How it was run: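 Rat cerebellum supernatant as NOS source, incubated with radiolabelled arginine plus cofactors including NADPH at 25 °C for 5-60 min depending on enzyme activity. Unconverted arginine was trapped on a cation-exchange filter plate, citrulline washed out, and bound arginine counted by scintillation; % inhibition versus no-compound reactions.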

Structure (SMILES)	HTS-NOS assay: % inhibition (10 μM)
Cc1ccn2c(NC3CCCCC3)c(-c3ccccc3C(F)(F)F)nc2c1 [Example 13, Cyclohexyl-[7-methyl-2-(2-trifluorO-methyl-phenyl)-imidazo[1,2-a]pyridin-3-yl]-amine]	57%
C#[N+]CCCCCCN(C(C)=O)c1c(-c2ccc(C)cc2)nc2cc(C)ccn12 [Example 279, {6-[acetyl-(7-methyl-2-p-tolyl-imidazo[1,2-a]pyridin-3-yl)-amino]-hexyl}-methylidyne-ammonium]	71%
[C-]#[N+]CCCCCCNc1c(-c2ccccc2F)nc2cc(C)cc(C)n12 [Example 116, {6-[2-(2-Fluoro-phenyl)-5,7-dimethyl-imidazo[1,2-a]pyridin-3-ylamino]-hexyl}-methylidyne-ammonium]	60%
Cc1cc(C)n2c(NC3CCCCC3)c(-c3ccccn3)nc2c1 [Example 114, Cyclohexyl-(5,7-dimethyt-2-pyridin-2-yl-imidazo[1,2-a]pyridin-3-yl)-amine]	53%

same assay, conditions: read-out: HTS-NOS assay: % inhibition (10 μM)

inhibition at 10 µM	Structure (SMILES)
51%	CC(=O)N(c1c(-c2c(F)cccc2Cl)nc2c(C)cc(Br)cn12)C1CCCCC1 [Example 253, N-[6-bromo-2-(2-chloro-6-fluoro-phenyl)-8-methyl-imidazo[1,2-a]pyridin-3-yl]-N-cyclohexyl-acetamide]
53%	CC(=O)N(c1c(-c2sccc2Br)nc2ccc(C)cn12)C1CCCCC1 [Example 224, N-[2-(3-bromo-thiophen-2-yl)-6-methyl-imidazo[1,2-a]pyridin-3-yl]-N-cyclohexyl-acetamide]
63%	Cc1cc(C)n2c(NC3CCCCC3)c(-c3ccc([N+](=O)[O-])o3)nc2c1 [Example 104, Cyclohexyl-[5,7-dimethyl-2-(5-nitro-furan-2-yl)-imidazo[1,2-a]pyridin-3-yl]-amine]
52%	Cc1ccn2c(NC(C)(C)C)c(C3CCCCC3)nc2c1 [Example 93, Tert-butyl-(2-cyclohexyl-7-methyl-imidazo[1,2-a]pyridin-3-yl)-amine]
50%	CC(=O)N(c1c(-c2ccc(C3OCCO3)o2)nc2cccc(C)n12)C1CCCCC1 [Example 264, N-cyclohexyl-N-[2-(5-[1,3]dioxolan-2-yl-furan-2-yl)-5-methyl-imidazo[1,2-a]-pyridin-3-yl]-acetamide]
63%	Cc1ccn2c(NC(C)(C)C)c(-c3cccnc3)nc2c1 [Example 1, Tert-butyl-(7-methyl-2-pyridin-3-yl-imidazo[1,2-a]pyridin-3-yl)-amine]
51%	Cc1ccc2nc(-c3cccnc3)c(NC(C)(C)C)n2c1 [Example 125, Tert-butyl-(6-methyl-2-pyridin-3-yl-imidazo[1,2-a]pyridin-3-yl)-amine]
60%	Cc1ccn2c(NC3CCCCC3)c(-c3cccs3)nc2c1 [Example 11, Cyclohexyl-(7-methyl-2-thiophen-2-yl-imidazo[1,2-a]pyridin-3-yl)-amine]
64%	CC(=O)N(c1c(-c2ccc([N+](=O)[O-])o2)nc2cc(C)ccn12)C1CCCCC1 [Example 178, N-cyclohexyl-N-[7-methyl-2-(5-nitro-furan-2-yl)-imidazo[1,2-a]pyridin-3-yl]-acetamide]
62%	COc1ccccc1-c1nc2c(C)cccn2c1NC1CCCCC1 [Example 82, Cyclohexyl-[2-(2-methoxy-phenyl)-8-methyl-imidazo[1,2-a]pyridin-3-yl]-amine]
52%	Cc1cccn2c(NC3CCCCC3)c(-c3ccncc3)nc12 [Example 111, Cyclohexyl-(8-methyl-2-pyridin-4-yl-imidazo[1,2-a]pyridin-3-yl)-amine]
51%	Cc1cccn2c(NC(C)(C)CC(C)(C)C)c(C3CCCCC3)nc12 [Example 139, (2-Cyclohexyl-8-methyl-imidazo[1,2-a]-pyridin-3-yl)-(1,1,3,3-tetramethyl-butyl)-amine]
56%	Cc1cccn2c(NC(C)(C)C)c(-c3ccccn3)nc12 [Example 120, Tert-butyl-(8-methyl-2-pyridin-2-yl-imidazo[1,2-a]pyridin-3-yl)-amine]

Continued, compound first:

Structure (SMILES)	inhibition at 10 µM
CC(=O)N(c1c(C)cccc1C)c1c(-c2ccc(C(=O)O)s2)nc2ccc(C)cn12 [Example 225, 5-{3-[acetyl-(2,6-dimethyl-phenyl)-amino]-6-methyl-imidazo[1,2-a]pyridin-2-yl}-thiophene-2-carboxylic acid]	55%
CC(=O)N(c1c(-c2ccc(C)o2)nc2ccccn12)C(C)(C)C [Example 220, N-tert-butyl-N-[2-(5-methyl-furan-2-yl)-imidazo[1,2-a]pyridin-3-yl]-acetamide]	61%
Cc1cc(C)n2c(NC(C)(C)CC(C)(C)C)c(-c3ccc(Cl)cc3Cl)nc2c1 [Example 89, [2-(2,4-Dichlorophenyl)-5,7-dimethyl-imidazo[1,2-a]pyridin-3-yl]-(1,1,3,3-tetramethyl-butyl)-amine]	68%
CC(=O)N(c1c(-c2ccc(C(=O)O)s2)nc2cccc(C)n12)C(C)(C)C [Example 183, 5-[3-(acetyl-tert-butyl-amino)-5-methyl-imidazo[1,2-a]pyridin-2-yl]-thiophene-2-carboxylic acid]	50%
CC(=O)N(c1c(-c2cccc3ccccc23)nc2cc(C)ccn12)C(C)(C)C [Example 204, N-tert-butyl-N-(7-methyl-2-naphthalen-1-yl-imidazo[1,2-a]pyridin-3-yl)-acetamide]	54%
CC(=O)N(c1c(C)cccc1C)c1c(-c2cccc(Cl)c2Cl)nc2cccc(C)n12 [Example 236, N-[2-(2,3-dichloro-phenyl)-5-methyl-imidazo[1,2-a]pyridin-3-yl]-N-(2,6-dimethyl-phenyl)-acetamide]	58%
COc1cccc(-c2nc3cc(C)cc(C)n3c2N(C(C)=O)C(C)(C)CC(C)(C)C)c1OC [Example 194, N-[2-(2,3-dimethoxy-phenyl)-5,7-dimethyl-imidazo[1,2-a]pyridin-3-yl]-N-(1,1,3,3-tetramethyl-butyl)-acetamide]	59%
CC(=O)N(c1c(C)cccc1C)c1c(-c2sccc2Br)nc2cc(C)cc(C)n12 [Example 156, N-[2-(3-bromo-thiophen-2-yl)-5,7-dimethyl-imidazo[1,2-a]pyridin-3-yl]-N-(2,6-dimethyl-phenyl)-acetamide]	74%
CCc1ccn2c(Nc3cccc(Cl)c3)c(-c3cc4ccccc4o3)nc2c1 [Example 319, (2-Benzofuran-2-yl-7-ethyl-imidazo[1,2-a]-pyridin-3-yl)-(3-chloro-phenyl)-amine]	53%
CCc1ccn2c(NCc3ccccc3Cl)c(-c3ccc([N+](=O)[O-])o3)nc2c1 [Example 314, (2-Chlorobenzyl)-[7-ethyl-2-(5-nitro-furan-2-yl)-imidazo[1,2-a]pyridin-3-yl]-amine]	47%
CC(=O)N(c1c(-c2cccnc2)nc2cc(C)ccn12)C(C)(C)C [Example 144, N-tert-butyl-N-(7-methyl-2-pyridin-3-yl-imidazo[1,2-a]pyridin-3-yl)-acetamide]	59%
CC(=O)N(c1c(-c2ccc(CO)o2)nc2cc(C)cc(C)n12)C(C)(C)CC(C)(C)C [Example 155, N-[2-(5-hydroxymethyl-furan-2-yl)-5,7-dimethyl-imidazo[1,2-a]pyridin-3-yl]-N-(1,1,3,3-tetramethyl-butyl)-acetamide]	50%
Cc1ccn2c(NC(C)(C)C)c(-c3ccc(C(=O)O)s3)nc2c1 [Example 110, 5-(3-Tert-butylamino-7-methyl-imidazo[1,2-a]pyridin-2-yl)-thiophene-2-carboxylic acid]	61%
CC(=O)N(c1c(-c2ccc(C(=O)O)o2)nc2cc(C)ccn12)C(C)(C)CC(C)(C)C [Example 186, 5-{3-[acetyl-(1,1,3,3-tetramethyl-butyl)-amino]-7-methyl-imidazo[1,2-a]pyridin-2-yl}-furan-2-carboxylic acid]	65%
Cc1ccn2c(NC(C)(C)C)c(-c3ccc(CO)o3)nc2c1 [Example 64, [5-(3-Tert-butylamino-7-methyl-imidazo[1,2-a]pyridin-2-yl)-furan-2-yl]-methanol]	52%
Cc1ccn2c(NC(C)(C)CC(C)(C)C)c(-c3cccc4ccccc34)nc2c1 [Example 63, (7-Methyl-2-naphthalen-1-yl-imidazo[1,2-a]-pyridin-3-yl)-(1,1,3,3-tetramethyl-butyl)-amine]	52%
COc1cccc(-c2nc3cc(C)ccn3c2Nc2c(C)cccc2C)c1OC [Example 39, [2-(2,3-Dimethoxy-phenyl)-7-methyl-imidazo[1,2-a]pyridin-3-yl]-(2,6-dimethyl-phenyl)-amine]	58%
COc1cccc(-c2nc3cc(C)cc(C)n3c2NC(C)(C)CC(C)(C)C)c1OC [Example 108, (2-(2,3-Dimethoxy-phenyl)-5,7-dimethyl-imidazo[1,2-a]pyridin-3-yl]-(1,1,3,3-tetramethyl-butyl)-amine]	73%
COC(=O)CNc1c(C2CCCCC2)nc2cc(C)cc(C)n12 [Example 142, (2-Cyclohexyl-5,7-dimethyl-imidazo[1,2-a]-pyridin-3-ylamino)-acetic acid methyl ester]	59%
COc1ccccc1-c1nc2cc(C)cc(C)n2c1N(C(C)=O)C(C)(C)CC(C)(C)C [Example 172, N-[2-(2-methoxy-phenyl)-5,7-dimethyl-imidazo[1,2-a]pyridin-3-yl]-N-(1,1,3,3-tetramethyl-butyl)-acetamide]	62%
CC(=O)N(c1c(-c2cc(C)c(C)o2)nc2ccccn12)C(C)(C)CC(C)(C)C [Example 202, N-[2-(4,5-dimethyl-furan-2-yl)-imidazo[1,2-a]pyridin-3-yl]-N-(1,1,3,3-tetramethyl-butyl)-acetamide]	57%
